Measured values: US9809597B2, “Ganciclovir derivatives for modulating innate and adaptive immunity and for use in immunotherapy” (The Board of Trustees of the Leland Stanford Junior …, priority 2015, dated 2017)

Columns and labels:
[1] = test system: THP-1 human monocyte cells; assay: RT-PCR for CXCL10 in THP-1 cells; assay type: cell-based; conditions: 200 μM, 8-24 hours
Experimental: BV-2 mouse microglia cells were grown in DMEM+10% FBS and THP-1 human monocyte cells were grown in RPMI-40+10% FBS+0.05 mM β-mercaptoethanol at 37° C., 5% CO2. Adherent cells were split using 1×TrypLE (Gibco). For cellular assays, cells were treated with the following concentrations of drugs as indicated in the DMEM without serum: 100-200 μM ganciclovir, 10 ng/ml IFNγ (R&D systems), 100 ng/ml LPS (Sigma-Aldrich), 1-10 μM Fludarabine (Selleckchem), 1 μM Ruxolitinib (Selleckchem), 1 μM TG-101348 (Selleckchem), 1 μM Amlexanox (Tocris bioscience) unless otherwise noted. All experiments were run in triplicates and replicated at least 3 times with cell lines and at least twice with primary microglia. Average data are shown for cell lines and representative data are shown for primary cells. Secreted signaling proteins were measured in supernatants from cultured cells stimulated with GCV and conditioned for 24 hours in the absence of serum using two independent Luminex arrays (Human Immune Monitoring Center, Stanford and Eve technologies, Canada). Nitrite assay was performed on conditioned culture supernatants of cells stimulated with drugs for 24 hours using the Griess Reagent System (Promega) according to manufacturer's instructions. To assess cellular viability, cell confluence was measured using an automated microscope (Cellavista; Roche). […]

[2] = test system: BV-2 microglia; assay: Cell viability (cell confluence, automated microscope); assay type: cell-based, mouse; conditions: GCV dose response
Experimental: (§1) BV-2 mouse microglia cells were grown in DMEM+10% FBS and THP-1 human monocyte cells were grown in RPMI-40+10% FBS+0.05 mM β-mercaptoethanol at 37° C., 5% CO2. Adherent cells were split using 1×TrypLE (Gibco). For cellular assays, cells were treated with the following concentrations of drugs as indicated in the DMEM without serum: 100-200 μM ganciclovir, 10 ng/ml IFNγ (R&D systems), 100 ng/ml LPS (Sigma-Aldrich), 1-10 μM Fludarabine (Selleckchem), 1 μM Ruxolitinib (Selleckchem), 1 μM TG-101348 (Selleckchem), 1 μM Amlexanox (Tocris bioscience) unless otherwise noted. All experiments were run in triplicates and replicated at least 3 times with cell lines and at least twice with primary microglia. Average data are shown for cell lines and representative data are shown for primary cells. Secreted signaling proteins were measured in supernatants from cultured cells stimulated with GCV and conditioned for 24 hours in the absence of serum using two independent Luminex arrays (Human Immune Monitoring Center, Stanford and Eve technologies, Canada). Nitrite assay was performed on conditioned culture supernatants of cells stimulated with drugs for 24 hours using the Griess Reagent System (Promega) according to manufacturer's instructions. To assess cellular viability, cell confluence was measured using an automated microscope (Cellavista; Roche).

[3] = test system: BV-2 cells; assay: RT-PCR for CXCL10 and IFNβ transcripts in BV-2 cells; assay type: cell-based, mouse
Experimental: as §1
(§2) RNA was isolated from cells using RNeasy mini kit from Qiagen. DNased RNA was converted to cDNA using SuperScript III reverse transcriptase kit (Life technologies). The cDNA was used to quantify specific targets using SYBR green in Roche Lightcycler 480. ΔΔCt values normalized against the experimental control to determine fold change in mRNA for each sample compared to untreated or vehicle treated control. β-actin or Ubc or both were used as housekeeping genes. Primer sequences were obtained from PrimerBank. Fold change is shown compared to the vehicle treated or untreated cells, unless otherwise noted.

[4] = test system: primary microglia; assay: RT-PCR for CXCL10 and IFNβ transcripts in primary microglia (wildtype, tk KO, STING^gt/gt); assay type: cell-based, mouse; conditions: 200 μM, 6 hours
Experimental: Mice were housed and bred according to the Institutional Animal Care and Use Committee guidelines. Primary microglia and astrocytes were isolated from P0-P3 C57BL/6 mouse pups. Cortices from pups were isolated, meninges removed and tissue was dissociated using a 25-gauge needle. Two cortices were plated on each poly-L-lysine coated T-75 flasks in DMEM/F12+10% FBS+1% penicillin/streptomycin. Microglia and astrocyte co-cultures were maintained for 3 weeks, after which microglia were isolated using CD11b magnetic beads (Miltenyi Biotec) according to the manufacturer's instructions. Isolated microglia were allowed to recover for 1-2 days and processed for cellular assays described above.
For tk KO experiments only, microglia were isolated from adult mouse brains using the neural dissociation kit (Miltenyi Biotec) according to manufacturer's protocol followed by CD11b magnetic bead enrichment. Isolated cells were cultured for 3-4 days before the experiment.
as §2

[5] = adult tk1 knockout primary microglia
[6] = primary microglia lacking functional STING

Nc1nc(O)c2ncn(COC(CO)CO)c2n1 [GCV, Ganciclovir]
induction of CXCL10 mRNA in human monocyte cell line [1]: induced | toxicity (cell viability) [2]: without causing any toxicity | induction of CXCL10 mRNA on neutralization of IFNβ with an antibody ([3]; BV-2 cells, 200 μM with anti-IFNβ antibody, 4 hours): partly reduced | EC50 ([3]; Mus musculus, BV-2 microglia, dose response, read-out: EC50, increase of CXCL10 transcript): ~160 µM | induction of IFNβ transcript ([3]; microglia (BV-2, primary), 200 μM): induced | CXCL10 mRNA in microglia from tk1 knockout mice [4, 5]: at levels seen in treated wild type microglia | IFNβ mRNA in microglia from tk1 knockout mice [4, 5]: at levels seen in treated wild type microglia | induction of CXCL10 mRNA in STING^gt/gt primary microglia [4, 6]: failed to induce | induction of IFNβ mRNA in STING^gt/gt primary microglia [4, 6]: failed to induce
